Data taken from patent US20060229358A1, “Pharmaceutical composition containing flavonoids” (Taipei Medical University, priority 2005, published 2006).

Test system: PDE1
Experiment: Inhibition of cyclic nucleotide PDE activity (Assay I), PDE1
Format: biochemical, guinea pig
Conditions: mean ± S.E.M. (n); read-out: IC50 on phosphodiesterase isozyme 1
Protocol: Under a protocol approved by the Animal Care and Use Committee of Taipei Medical University, five male guinea pigs (Hartley), weighing 500-600 g, were sacrificed. The lungs (15 g) or hearts (4 g) taken therefrom were chopped into small pieces and homogenized with a glass/teflon homogenizer (Glas-Col, Terre Haute, Ind., USA) in 10 volumes of cold medium (pH 6.5) containing 20 mM Bis-Tris, 2 mM benzamidine, 2 mM EDTA, 50 mM sodium chloride, 0.1 mM phenylmethanesulfonyl fluoride (PMSF), and 1 mM dithiothreitol. At 4° C., the homogenate was centrifuged at 170 g for 15 min, and the supernatant thereof was then re-centrifuged at 40,000 g for 30 min. The final supernatant fraction was filtered through the 0.22 μm filter and applied to a Q-sepharose fast flow column (2.2×28 cm), which is pre-washed and pre-equilibrated in homogenization buffer. The column was washed with two bed volumes of homogenate buffer to remove unbound material, where the resin beads therein will bind with proteins, such as PDE proteins. Proteins bound to the Q-sepharose beads were eluted with various concentrations (0.23, 0.34, 0.44, 0.69, and 1.00 M) of NaCl dissolved in homogenate buffer (for each concentration, 40-50 mL elution buffer were applied) at a flow rate of 30 ml/h. Fractions (3 ml each) were collected, and ethylene glycol (EG) was added thereto until a final concentration of 30% (v/v). And then the samples were frozen at −70° C. Under these conditions, the enzyme activity was stable for at least 3 months.
In order to eliminate possible contamination of PDE5 by PDE1, the above-collected fractions with enzyme activity was further purified on a calmodulin-agarose column. The column (1.6 cm×4 cm) was pre-equilibrated by a buffer A, which contains 20 mM Bis-tris, 1 mM dithiothreitol, 2 mM benzamidine, 50 mM NaCl, 3 mMMgCl2, 0.1 mM CaCl2, and 0.1 mM PMSF, pH 6.5. The sample (the mixture of PDE5 and PDE1), being purified by the above-mentioned column, with the CaCl2 concentration thereof adjusted to at least 2 mM previously, was loaded and allowed to be absorbed on the gel for 30 min. Then, the PDE isozymes were eluted by stepwise elution using 20 ml of buffer A with 1 M NaCl followed by 20 ml of buffer A with 1 M NaCl and with 1 mM EGTA. PDE5 was collected first followed by PDE1.
The activities of PDE1-5 in the homogenate were measured with a two-step procedure according to the method of Thompson and Appleman, using cAMP with [^3H]-cAMP or cGMP with [^3 H]-cGMP as substrates. The PDE enzyme prepared (25 μl) with 10 μl inhibitor or the solvents therefor was incubated for 30 min at 37° C. in a total assay buffer, where the final volume of the assay is amounted to 100 μl. In accordance with the features of the PDE isozymes, the assay buffer contains 50 mM Tris/HCl (pH 7.4), 3 mM MgCl2, 1 mM dithiothreitol, and 0.05% BSA, and optionally contains 1 uM cAMP with 0.2 μCi [^3H]-cAMP as a substrate alone or in the presence of 0.1 unit calmodulin with 10 μM CaCl2, or 5 μM cGMP, and 1 μM cGMP with 0.2 μCi [^3H]-cGMP as another substrate alone or in the presence of 0.1 unit calmodulin with 10 μM CaCl2. In assay of enzyme inhibition, the assay mixture contained with the inhibitors at various concentrations of flavonoids in the Table 1 or the selective PDE1-5 inhibitors as reference drugs. For example, the selective PDE1-5 inhibitors are vinpocetin [30], EHNA [31], milrinone, Ro 20-1724 [33], and zaprinast, respectively.
The PDE enzyme and the inhibitors (or their solvent) therefor were mixed and incubated on ice for 30 min previously, and then mixed with the assay buffer. The assay was initiated by transferring the mixture to a water bath at 37° C. Following the other 30 min incubation, the reaction was stopped by transferring the reaction vessel to a bath of boiling water for 3 min. After cooling on ice, 20 μl of the 1 mg/ml of Crotalus atrox venom was added to the reaction mixture, and the mixture was incubated at 37° C. for 10 min. […]

| SMILES | IC50 [µM] |
| --- | --- |
| O=c1cc(-c2ccc(O)cc2)oc2cc(O)cc(O)c12 [Apigenin] | 25.4 ± 3.7 |
| COc1ccc(-c2coc3cc(O)cc(O)c3c2=O)cc1 [Biochanin A] | 29.1 ± 0.3 |
| O=c1cc(-c2ccccc2)oc2cc(O)cc(O)c12 [Chrysin] | > 100 |
| O=c1c(-c2ccc(O)cc2)coc2cc(O)ccc12 [Daidzein] | > 100 |
| O=C1CC(c2ccc(O)c(O)c2)Oc2cc(O)cc(O)c21 (stereo not drawn) [Eriodictyol] | > 100 |
| O=c1c(-c2ccc(O)cc2)coc2cc(O)cc(O)c12 [Genistein] | 16.8 ± 2.3 |
| COc1ccc(C2CC(=O)c3c(O)cc(O)cc3O2)cc1O (stereo not drawn) [Hesperetin] | > 100 |
| O=c1cc(-c2ccc(O)c(O)c2)oc2cc(O[C@@H]3O[C@H](CO)[C@@H](O)[C@H](O)[C@H]3O)cc(O)c12 [Luteolin-7-glucoside] | > 100 |
| O=c1cc(-c2ccc(O)c(O)c2)oc2cc(O)cc(O)c12 [Luteolin] | 21.5 ± 2.9 |
| O=c1c(O)c(-c2cc(O)c(O)c(O)c2)oc2cc(O)cc(O)c12 [Myricetin] | 24.9 ± 3.6 |
| COc1cc(O)c2c(=O)c(-c3ccc(O)cc3)coc2c1 [Prunetin] | > 100 |
| O=c1c(O)c(-c2ccc(O)c(O)c2)oc2cc(O)cc(O)c12 [Quercetin] | 27.8 ± 5.7 |
